Some test systems named below: CAKI-1; DU-145; EKVX; HCC 2998; HL-60; HOP-62; HOP-92; MCF7; MDA-MB-435; NCI-H460; NCI-H522; OVCAR-8; PC-3; RXF 393; SF-268; SF-539; SK-MEL-28; SK-MEL-5; SN12C; T47D.
Assay in all cases: NCI-60 cell line screen, 48 h

The values below come from ChEMBL document CHEMBL1201862, “PubChem BioAssay data set” (2004).

The structures appear in SMILES notation.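 Dose response: 5 concentrations. Exposure: 48 h. Format: 96-well plates. Endpoint: linear interpolation; highest concentration if not reached. GI50 is the concentration that inhibits growth by half.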 Activity calls are given as the source filed them. No stated cut-off is given here; in the data, active = GI50 up to about 1.1 µM and inactive = higher. A value given as a limit tells only on which side of the number the result lay.

For `CCOC(=O)[C@H]1C[C@]23CN(C(=O)OC(C)(C)C)CC[C@H]2CCC2(SCCCS2)[C@@H]3N1C`, the GI50 with CAKI-1 was 33.8 µM (inactive); in the test on DU-145, 54.3 µM (inactive); in the test with EKVX, 27.3 µM (inactive); in the test with HCC 2998, 22.8 µM (inactive); with HL-60 it was 20.7 µM (inactive); with HOP-62, 39.9 µM (inactive). Besides, the GI50 in the test with HOP-92 is 14.1 µM (inactive); in the test on MCF7, 38.7 µM (inactive); in the test with MDA-MB-435, 37.7 µM (inactive); in the test with NCI-H460 it was 33.3 µM (inactive); in the test with NCI-H522, 27.5 µM (inactive); in the test on OVCAR-8 it was 37.8 µM (inactive). The GI50 was 25.2 µM (inactive) in the test with PC-3; 33.8 µM (inactive) in the test with RXF 393; 50.4 µM (inactive) in the test with SF-268; 29.6 µM (inactive) with SF-539; 91 µM (inactive) in the test on SK-MEL-28; 18.5 µM (inactive) in the test on SK-MEL-5. The GI50 is 21.3 µM (inactive) in the test on SN12C and 25.8 µM (inactive) in the test with T47D.

As to `CCCCCCCCCCCCCCCCCCOP1(=O)OCCO1`, the GI50 with CAKI-1 was > 100 µM (inactive); in the test on DU-145 it was > 100 µM (inactive); with EKVX, > 100 µM (inactive); in the test with HCC 2998, 47.2 µM (inactive); in the test on HL-60 it was 23.8 µM (inactive); in the test on HOP-62, 79.1 µM (inactive). Also, the GI50 in the test with HOP-92 was > 100 µM (inactive); in the test on MCF7, > 100 µM (inactive); with MDA-MB-435 it was > 100 µM (inactive); with NCI-H522 it was 54.6 µM (inactive); with OVCAR-8, > 100 µM (inactive); in the test with PC-3 it was 22.8 µM (inactive). The GI50 with RXF 393 is 16.4 µM (inactive); in the test with SF-539 it was > 100 µM (inactive); with SK-MEL-28 it was > 100 µM (inactive); in the test with SK-MEL-5, > 100 µM (inactive); in the test on SN12C, > 100 µM (inactive); in the test on T47D, > 100 µM (inactive).

With `Cc1ccc(N2C=Nn3c(nc4sc5c(c4c3=O)CCCC5)C2)cc1`, the GI50 with CAKI-1 is 46 µM (inactive); in the test with DU-145, 69.3 µM (inactive); with EKVX it was 80 µM (inactive); with HCC 2998, 39.9 µM (inactive); in the test with HOP-62, 21.2 µM (inactive); with HOP-92, > 100 µM (inactive). For the same compound, the GI50 in the test on MCF7 was 38.3 µM (inactive); in the test with MDA-MB-435, 99.3 µM (inactive); in the test with NCI-H460, 50.1 µM (inactive); in the test on NCI-H522, 39.1 µM (inactive); in the test with OVCAR-8, 62.1 µM (inactive); in the test with PC-3 it was 49.4 µM (inactive). The GI50 in the test with RXF 393 is 24.8 µM (inactive); in the test on SF-268, 83 µM (inactive); in the test on SK-MEL-28, 93.5 µM (inactive); with SK-MEL-5 it was 29.8 µM (inactive); with SN12C it was 63.8 µM (inactive); in the test on T47D, 43.3 µM (inactive).

Consider `C=C1CCC[C@@H](C)C(O)[C@@H]2OC(=O)C(=C)[C@@H]2C[C@@H](OC(C)=O)[C@@]2(C)CC[C@@H]1O2` (stereo not given in full), for which the GI50 is 6.89 µM (inactive) with CAKI-1; 7.66 µM (inactive) with DU-145; 7.62 µM (inactive) with EKVX; 7.89 µM (inactive) with HCC 2998; 8.09 µM (inactive) in the test on HOP-62; 7.96 µM (inactive) in the test on HOP-92. In addition, the GI50 with MCF7 was 5.55 µM (inactive); in the test with MDA-MB-435 it was 7.71 µM (inactive); with NCI-H522, 0.916 µM (active); in the test with OVCAR-8 it was 7.19 µM (inactive); with PC-3, 8.39 µM (inactive); in the test with RXF 393, 6.49 µM (inactive). Besides, the GI50 is 7.8 µM (inactive) with SF-268; 7.98 µM (inactive) in the test on SF-539; 7.98 µM (inactive) with SK-MEL-28; 6.92 µM (inactive) with SK-MEL-5; 8.51 µM (inactive) in the test with SN12C; 9.66 µM (inactive) in the test with T47D.

Turning to `CSc1c(C#N)c(N)n(-c2ccc(Cl)cc2)c(=O)c1C#N`, the GI50 was > 100 µM (inactive) with CAKI-1; > 100 µM (inactive) with DU-145; > 100 µM (inactive) with EKVX; > 100 µM (inactive) in the test on HCC 2998; 46.3 µM (inactive) in the test on HL-60; 21 µM (inactive) in the test with HOP-92. For the same compound, the GI50 in the test on MCF7 was > 100 µM (inactive); in the test on MDA-MB-435 it was > 100 µM (inactive); in the test with NCI-H460, > 100 µM (inactive); in the test with NCI-H522, 27.5 µM (inactive); in the test with OVCAR-8 it was 67.8 µM (inactive); in the test on PC-3, > 100 µM (inactive). Moreover, the GI50 in the test with RXF 393, with SF-268, with SF-539, in the test with SK-MEL-28, in the test on SK-MEL-5 and with SN12C was > 100 µM (inactive) each time. The GI50 in the test with T47D is > 100 µM (inactive).

`CCCCCCCCCC(=O)NCCc1c[nH]c2ccc(OC)cc12`: the GI50 is 25.4 µM (inactive) with CAKI-1; 20.2 µM (inactive) in the test with DU-145; 28 µM (inactive) in the test on EKVX; 19.5 µM (inactive) in the test on HCC 2998; 16.4 µM (inactive) with HOP-62; 16.2 µM (inactive) in the test with HOP-92. The GI50 with MCF7 is 17.5 µM (inactive); in the test on MDA-MB-435, 24.5 µM (inactive); in the test with NCI-H460, 23.3 µM (inactive); with NCI-H522 it was 16 µM (inactive); with OVCAR-8, 16.6 µM (inactive); with PC-3, 15.3 µM (inactive). Further, the GI50 with RXF 393 was 19 µM (inactive); in the test with SF-268, 17.7 µM (inactive); in the test on SF-539, 23.2 µM (inactive); with SK-MEL-28, 17.9 µM (inactive); with SK-MEL-5, 18.5 µM (inactive); in the test on SN12C it was 17.4 µM (inactive). Moreover, the GI50 in the test with T47D is 19.7 µM (inactive).

For `c1ccc(-c2nnn(CCN3CCCCC3)n2)cc1`, the GI50 is > 100 µM (inactive) in the test on CAKI-1; > 100 µM (inactive) in the test with DU-145; 96.6 µM (inactive) in the test with EKVX; > 100 µM (inactive) in the test on HCC 2998; > 100 µM (inactive) in the test with HL-60; > 100 µM (inactive) in the test with HOP-62. The GI50 in the test with HOP-92, in the test on MCF7, in the test on MDA-MB-435, in the test with NCI-H460, in the test on NCI-H522 and in the test with OVCAR-8 was > 100 µM (inactive) in each case. Also, the GI50 with PC-3, with RXF 393, with SF-268, in the test with SK-MEL-28, in the test on SK-MEL-5 and in the test on SN12C was > 100 µM (inactive) in each case. In the test on T47D, the GI50 is > 100 µM (inactive).

Turning to `O=C1Nc2ccccc2C1(O)Cc1ccccn1` (stereo not given), the GI50 in the test with CAKI-1, in the test on DU-145, with EKVX, in the test on HCC 2998, in the test with HL-60 and with HOP-62 was > 100 µM (inactive) each time. For the same compound, the GI50 in the test with HOP-92, in the test on MCF7, in the test with MDA-MB-435, in the test on NCI-H460, in the test on NCI-H522 and with OVCAR-8 was > 100 µM (inactive) throughout. Moreover, the GI50 with PC-3, in the test with RXF 393, in the test with SF-268, in the test on SK-MEL-28, in the test on SK-MEL-5 and in the test on SN12C was > 100 µM (inactive) each time. Also, the GI50 in the test with T47D was > 100 µM (inactive).

For the compound `Clc1n[nH]c2ccccc12`, the GI50 is > 100 µM (inactive) in the test with DU-145; 86.5 µM (inactive) in the test with EKVX; > 100 µM (inactive) with HCC 2998; > 100 µM (inactive) in the test with HL-60; > 100 µM (inactive) in the test with HOP-62; > 100 µM (inactive) with HOP-92. Further, the GI50 in the test on MCF7, in the test with MDA-MB-435, in the test with NCI-H460, with NCI-H522, with OVCAR-8 and in the test with PC-3 was > 100 µM (inactive) throughout. Also, the GI50 in the test with RXF 393, with SF-268, in the test with SF-539, in the test on SK-MEL-28, in the test with SK-MEL-5 and with SN12C was > 100 µM (inactive) throughout. Also, the GI50 in the test on T47D was > 100 µM (inactive).

On to `Clc1sc(Cl)c2c1[C@@H](Cl)C[C@@H]2Br`, for which the GI50 in the test on CAKI-1 is > 100 µM (inactive); with DU-145, > 100 µM (inactive); in the test with EKVX, > 100 µM (inactive); with HCC 2998 it was > 100 µM (inactive); with HOP-62, > 100 µM (inactive); in the test with HOP-92 it was 37.4 µM (inactive). In addition, the GI50 is 43.8 µM (inactive) in the test on MCF7; 40.6 µM (inactive) in the test with MDA-MB-435; 71.1 µM (inactive) with NCI-H460; 30.8 µM (inactive) with NCI-H522; > 100 µM (inactive) with OVCAR-8; > 100 µM (inactive) in the test on PC-3. In addition, the GI50 in the test with RXF 393 is 78.3 µM (inactive); in the test on SF-268, > 100 µM (inactive); with SK-MEL-28, > 100 µM (inactive); with SK-MEL-5, > 100 µM (inactive); with SN12C it was > 100 µM (inactive); with T47D, 44.7 µM (inactive).

`Cn1c(CCC2(C)Cc3ccccc3C(=O)O2)cc2ccccc2c1=O` (stereo not given): the GI50 in the test on CAKI-1 was 13.9 µM (inactive); in the test with DU-145, 23.7 µM (inactive); in the test with HCC 2998 it was 34.4 µM (inactive); with HL-60 it was 27.2 µM (inactive); with HOP-62, 18.5 µM (inactive); in the test with HOP-92, 57.5 µM (inactive). In addition, the GI50 with MCF7 is 24.2 µM (inactive); in the test on MDA-MB-435, 19.4 µM (inactive); in the test on NCI-H460, 24.8 µM (inactive); in the test on NCI-H522 it was 16.4 µM (inactive); with OVCAR-8 it was > 100 µM (inactive); with PC-3 it was 17.7 µM (inactive). Besides, the GI50 is 10.2 µM (inactive) in the test with RXF 393; 43.1 µM (inactive) in the test on SF-539; 28.8 µM (inactive) in the test with SK-MEL-28; 17.2 µM (inactive) in the test with SK-MEL-5; 44 µM (inactive) in the test with SN12C; 24.3 µM (inactive) with T47D.
